{"source": "paper PMC7385556", "about": "(ACS chemical biology, 2020)", "tested_on": "Mtb H37Rv mc^2 6230", "test": "MIC of compounds alone against Mtb H37Rv mc^2 6230", "assay_type": "cell-based, Mycobacterium tuberculosis", "details": "compound alone, absence of KAN", "note": "Values joined by “and” are separate entries in the source; they are usually repeats but may differ in a detail not shown here. Equal entries are not always repeated."}
{"smiles": "NC[C@H]1O[C@H](O[C@H]2[C@H](O)[C@@H](O[C@H]3O[C@H](CO)[C@@H](O)[C@H](N)[C@H]3O)[C@H](N)C[C@@H]2N)[C@H](O)[C@@H](O)[C@@H]1O", "note": "[KAN, kanamycin]", "values": [{"measurement": "H37Rv mc^2 6230 MIC", "value": "<1 μg/mL and <1.72 μM"}]}
